Among the data in US6967196B1, “Sulfonamide compounds and uses thereof” (Bristol-Myers Squibb Company, priority 1999, dated 2005) are IC50 values, retold here.

pIC50: −log10 of the molar value. Counter-ions that a name gives are not always drawn. Where only a bound is given, the exact number is not on record here.

One assay concerns amyloid β production in transfected H4 (human neuroglioma) cells stably expressing APP constructs. As to the kind of experiment: In vitro cell-based assay of inhibitors of amyloid β production (ELISA). Particulars: Homo sapiens, 16 h, transfected H4 cells stably expressing APP; approximately 16 hours incubation; amyloid β in medium by ELISA; read-out: ACTIVITY (IC50, inhibition of amyloid β production). In outline:
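Cells expressing wild-type or variant APP were plated ≥6 h before medium was replaced with compound-containing medium (initial screen 10-100 μM) and incubated ~16 h. Secreted Aβ in medium was quantified by sandwich ELISA (C-terminal-specific mouse monoclonal capture, N-terminal rabbit polyclonal detection) against an Aβ standard curve.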
(In general: An ELISA detects its analyte on a solid surface through an enzyme-linked reagent.)
What is called pIC50 is the negative decadic logarithm of the IC50, by convention in mol/L. With `CC#CCCCN(Cc1ccccc1OCCCN1CCCCC1)S(=O)(=O)c1ccc(Cl)cc1` [Example 842, 4-chloro-N-(4-hexynyl)-N-{2-[3-(1-piperidinyl)propoxy]benzyl}benzenesulfonamide hydrochloride], the pIC50 was 6.30 to 7.00.

Turning to `O=C(c1ccc(-c2ccccc2)cc1)N1CCCCC1CCOc1ccccc1CN(c1cc(F)ccc1F)S(=O)(=O)c1ccc(Cl)cc1` (centres unmarked) [Example 845, N-(2-{2-[1-([1,1′-biphenyl]-4-ylcarbonyl)-2-piperidinyl]ethoxy}benzyl)-4-chloro-N-(2,5-difluorophenyl)benzenesulfonamide], the pIC50 was 6.30 to 7.00.

On to `O=S(=O)(c1ccc(Cl)cc1)N(Cc1ccccc1OCCCN1CCCCC1)CC1CCCC1` [Example 848, 4-chloro-N-(cyclopentylmethyl)-N-{2-[3-(1-piperidinyl)propoxy]benzyl}benzenesulfonamide hydrochloride], for which the pIC50 is 6.30 to 7.00.

`CCN(CC)C(=O)N(C)CCCOc1ccccc1CN(c1cc(F)ccc1F)S(=O)(=O)c1ccc(Cl)cc1` [Example 849, 4-chloro-N-(2-{3-[[(diethylamino)carbonyl](methyl)amino]propoxy}benzyl)-N-(2,5-difluorophenyl)benzenesulfonamide]: the negative-log IC50 (pIC50) is 6.30 to 7.00.

With `O=S(=O)(c1ccc(Cl)cc1)N(Cc1ccccc1OCCSC1CCCCC1)c1cc(F)ccc1F` [Example 850, 4-chloro-N-{2-[2-(cyclohexylsulfanyl)ethoxy]benzyl}-N-(2,5-difluorophenyl)benzenesulfonamide], the pIC50 is 6.30 to 7.00.

Consider `O=S(=O)(c1ccc(Cl)cc1)N(Cc1ccccc1OCCCN1CCCCCC1)c1ccccc1` [Example 851, N-{2-[3-(1-azepanyl)propoxy]benzyl}-4-chloro-N-phenylbenzenesulfonamide hydrochloride], for which the negative-log IC50 (pIC50) was 6.30 to 7.00.

Consider `O=S(=O)(c1ccc(Cl)cc1)N(Cc1ccccc1OCCCN1CCCCC1)C1CCCCC1` [Example 852, 4-chloro-N-cyclohexyl-N-{2-[3-(1-piperidinyl)propoxy]benzyl}benzenesulfonamide hydrochloride], for which the pIC50 is 6.30 to 7.00.

Take `C[C@H](c1ccccc1Br)N(c1cc(F)ccc1F)S(=O)(=O)c1ccc(Cl)cc1` [Example 855, N-[(1R)-1-(2-bromophenyl)ethyl]-4-chloro-N-(2,5-difluorophenyl)benzenesulfonamide]: the negative logarithm of the IC50 (pIC50) was 6.30 to 7.00.

With `O=S(=O)(c1ccc(Cl)cc1)N(Cc1ccccc1OCCCN1CCOCC1)c1ccccc1` [Example 859, 4-chloro-N-{2-[3-(4-morpholinyl)propoxy]benzyl}-N-phenylbenzenesulfonamide hydrochloride], the negative-log IC50 (pIC50) is 6.30 to 7.00.

For `Cc1cccc(C(=O)N2CCCCC2CCOc2ccccc2CN(c2cc(F)ccc2F)S(=O)(=O)c2ccc(Cl)cc2)c1` (centres unmarked) [Example 860, 4-chloro-N-(2,5-difluorophenyl)-N-(2-{2-[1-(3-methylbenzoyl)-2-piperidinyl]ethoxy}benzyl)benzenesulfonamide], the pIC50 was 6.30 to 7.00.

Take `CCC1CCCCN1CCCOc1ccccc1CN(c1ccccc1)S(=O)(=O)c1ccc(Cl)cc1` (centres unmarked) [Example 865, 4-chloro-N-{2-[3-(2-ethyl-1-piperidinyl)propoxy]benzyl}-N-phenylbenzenesulfonamide hydrochloride]: the pIC50 is 6.30 to 7.00.

Consider `O=S(=O)(c1ccc(Cl)cc1)N(Cc1ccccc1OCCCN1CCCCC1)c1ccccc1Br` [Example 866, N-(2-bromophenyl)-4-chloro-N-{2-[3-(1-piperidinyl)propoxy]benzyl}benzenesulfonamide hydrochloride], for which the negative-log IC50 (pIC50) was 6.30 to 7.00.

As to `O=S(=O)(c1ccc(Cl)cc1)N(Nc1cc(F)ccc1F)[C@H](CO)c1ccccc1` [Example 868, 4-chloro-N-(2,5-difluoroanilino)-N-[(1S)-2-hydroxy-1-phenylethyl]benzenesulfonamide], the pIC50 was 6.30 to 7.00.

Turning to `O=S(=O)(c1ccc(Cl)cc1)N(Cc1ccccc1OCCCSC1CCCCC1)c1cc(F)ccc1F` [Example 869, 4-chloro-N-{2-[3-(cyclohexylsulfanyl)propoxy]benzyl}-N-(2,5-difluorophenyl)benzenesulfonamide], the pIC50 was 6.30 to 7.00.

Take `COc1ccc(S(=O)(=O)CCCOc2ccccc2CN(Nc2cc(F)ccc2F)S(=O)(=O)c2ccc(Cl)cc2)cc1` [Example 871, 4-chloro-N-(2,5-difluoroanilino)-N-(2-{3-[(4-methoxyphenyl)sulfonyl]propoxy}benzyl)benzenesulfonamide]: the pIC50 is 6.30 to 7.00.

As for `C=Cc1ccccc1[C@@H](C)N(c1cc(F)ccc1F)S(=O)(=O)c1ccc(Cl)cc1` [Example 874, 4-chloro-N-(2,5-difluorophenyl)-N-[(1R)-1-(2-vinylphenyl)ethyl]benzenesulfonamide], the negative logarithm of the IC50 (pIC50) was 6.30 to 7.00.

On to `Cc1ccccc1N(Cc1ccccc1OCCCN1CCCCC1)S(=O)(=O)c1ccc(Cl)cc1` [Example 875, 4-chloro-N-(2-methylphenyl)-N-{2-[3-(1-piperidinyl)propoxy]benzyl}benzenesulfonamide hydrochloride], for which the pIC50 is 6.30 to 7.00.

Take `O=S(=O)(c1ccc(Cl)cc1)N(Cc1ccccc1OCCCN1CCC2(CC1)OCCO2)c1ccccc1` [Example 877, 4-chloro-N-{2-[3-(1,4-dioxa-8-azaspiro[4.5]dec-8-yl)propoxy]benzyl}-N-phenylbenzenesulfonamide]: the pIC50 is 6.30 to 7.00.

`CCC(c1ccccc1OCCCN1CCCCC1)N(c1cc(F)ccc1F)S(=O)(=O)c1ccc(Cl)cc1` (centres unmarked) [Example 878, 4-chloro-N-(2,5-difluorophenyl)-N-(1-{2-[3-(1-piperidinyl)propoxy]phenyl}propyl)benzenesulfonamide hydrochloride]: the pIC50 was less than 6.30.

Regarding `COc1ccc(S(=O)(=O)N(Cc2ccccc2OCCCN2CCCCC2)c2cc(F)ccc2F)cc1` [Example 879, N-(2,5-difluorophenyl)-4-methoxy-N-{2-[3-(1-piperidinyl)propoxy]benzyl}benzenesulfonamide hydrochloride], the pIC50 is less than 6.30.

`O=S(=O)(c1ccc(Cl)cc1)N(Cc1ccccc1OCCCN1CCC(Cc2ccccc2)CC1)c1ccccc1` [Example 880, N-{2-[3-(4-benzyl-1-piperidinyl)propoxy]benzyl}-4-chloro-N-phenylbenzenesulfonamide hydrochloride]: the pIC50 is less than 6.30.

For the compound `O=S(=O)(c1ccc(Cl)cc1)N(Cc1ccccc1OCCCn1ccnc1)c1ccccc1` [Example 882, 4-chloro-N-{2-[3-(1H-imidazol-1-yl)propoxy]benzyl}-N-phenylbenzenesulfonamide hydrochloride], the pIC50 is less than 6.30.

Consider `Cc1ccc(C(=O)N2CCCCC2CCOc2ccccc2CN(c2cc(F)ccc2F)S(=O)(=O)c2ccc(Cl)cc2)cc1` (centres unmarked) [Example 884, 4-chloro-N-(2,5-difluorophenyl)-N-(2-{2-[1-(4-methylbenzoyl)-2-piperidinyl]ethoxy}benzyl)benzenesulfonamide], for which the pIC50 was less than 6.30.

As for `CC(COc1ccccc1C(C)N(c1cc(F)ccc1F)S(=O)(=O)c1ccc(Cl)cc1)N(C)S(=O)(=O)c1ccc(Cl)cc1` (centres unmarked) [Example 885, 4-chloro-N-[1-(2-{2-[[(4-chlorophenyl)sulfonyl](methyl)amino]propoxy}phenyl)ethyl]-N-(2,5-difluorophenyl)benzenesulfonamide], the pIC50 is less than 6.30.

As to `O=S(=O)(c1ccc(Cl)cc1)N(Cc1ccccc1)Cc1ccccc1OCCCN1CCCCC1` [Example 886, N-benzyl-4-chloro-N-{2-[3-(1-piperidinyl)propoxy]benzyl}benzenesulfonamide hydrochloride], the pIC50 is less than 6.30.

As to `O=S(=O)(c1ccc(Cl)cc1)N(Cc1ccccc1OCCCN1CCCCC1)c1cc(Cl)ccc1O` [Example 887, 4-chloro-N-(5-chloro-2-hydroxyphenyl)-N-{2-[3-(1-piperidinyl)propoxy]benzyl}benzenesulfonamide hydrochloride], the negative-log IC50 (pIC50) was less than 6.30.

Regarding `CC(C)N(C(=O)N(C)CCOc1ccccc1C(C)N(c1cc(F)ccc1F)S(=O)(=O)c1ccc(Cl)cc1)C(C)C` (centres unmarked) [Example 888, 4-chloro-N-(2,5-difluorophenyl)-N-[1-(2-{2-[[(diisopropylamino)carbonyl](methyl)amino]ethoxy}phenyl)ethyl]benzenesulfonamide], the negative-log IC50 (pIC50) was less than 6.30.

For the compound `CN1CCCCC1CCOc1ccccc1CN(c1ccccc1)S(=O)(=O)c1ccc(Cl)cc1` (centres unmarked) [Example 889, 4-chloro-N-{2-[2-(1-methyl-2-piperidinyl)ethoxy]benzyl}-N-phenylbenzenesulfonamide hydrochloride], the negative-log IC50 (pIC50) is less than 6.30.

On to `COc1ccc(C(=O)N2CCCCC2CCOc2ccccc2CN(c2cc(F)ccc2F)S(=O)(=O)c2ccc(Cl)cc2)cc1OC` (centres unmarked) [Example 890, 4-chloro-N-(2,5-difluorophenyl)-N-(2-{2-[1-(3,4-dimethoxybenzoyl)-2-piperidinyl]ethoxy}benzyl)benzenesulfonamide], for which the negative-log IC50 (pIC50) was less than 6.30.

The assay is the same for the next values; noted with them: transfected H4 cells stably expressing APP; approximately 16 hours incubation; amyloid β in medium by ELISA; hydrochloride; read-out: ACTIVITY (IC50, inhibition of amyloid β production).
Consider `C[C@@H](c1ccccc1OCCCn1ccnc1)N(c1cc(F)ccc1F)S(=O)(=O)c1ccc(Cl)cc1` [Example 861, 4-chloro-N-(2,5-difluorophenyl)-N-((1S)-1-{2-[3-(1H-imidazol-1-yl)propoxy]phenyl}ethyl)benzenesulfonamide hydrochloride], for which the pIC50 was 6.30 to 7.00.

For `CCC[C@@H](C)N(Cc1ccccc1OCCCN1CCCCC1)S(=O)(=O)c1ccc(Cl)cc1` [Example 867, 4-chloro-N-[(1R)-1-methylbutyl]-N-{2-[3-(1-piperidinyl)propoxy]benzyl}benzenesulfonamide hydrochloride], the pIC50 was 6.30 to 7.00.

Staying with this assay, now noted: transfected H4 cells stably expressing APP; approximately 16 hours incubation; amyloid β in medium by ELISA; read-out: ACTIVITY (IC50, inhibition of amyloid β production).
On to `O=S(=O)(c1ccc(Cl)cc1)N(Cc1ccccc1OCCC[N+]1([O-])CCCCC1)c1ccccc1` [Example 883], for which the pIC50 is less than 6.30.
